{
  "source": "patent US20120308682A1",
  "about": "“RUMINANT FEED, PRODUCTS, AND METHODS COMPRISING BENEFICIAL FATTY ACIDS” (MONSANTO TECHNOLOGY LLC, priority 2009, published 2012)",
  "system": "Holstein cows",
  "test": "Milk fatty acid composition after abomasal or ruminal infusion of SDA-enhanced soybean oil in dairy cows (gas chromatography)",
  "assay_type": "in vivo",
  "details": "of the SDA present in the abomasally infused oil; range=36.8 to 41.9%",
  "from_the_text": "In this Example, transgenic soybean oil containing SDA was either infused directly in the rumen or directly into the abomasum bypassing the rumen to examine the potential of using SDA-enhanced soybean oil to increase the milk fat content of omega-3 fatty acids in dairy cows and to determine the efficiency of SDA uptake from the digestive tract and transfer to milk fat.\nThree multiparous, pregnant, rumen-fistulated Holstein cows averaging 267 days in lactation were assigned randomly to a 3×3 Latin square design. Treatments were: 1) control (no oil infusion); 2) abomasal infusion of SDA-enhanced SBO (SDA-abo) and 3) ruminal infusion of SDA-enhanced SBO (SDA-rum). Oil infusions (210 g/d) provided 57 g/d of stearidonic acid and infusion periods were 7 d with a 7 d washout between periods. […]\nCows were milked twice a day with two milk samples obtained at each milking. One milk sample was analyzed for major components (i.e., fat, protein, lactose) by infrared analysis. The second milk sample was analyzed for fatty acids with extraction, methylation and gas chromatographic analysis. Fatty acids were quantified using pure methyl ester standards and a butter oil reference standard was analyzed periodically to monitor column performance and correction factors for individual fatty acids. […]",
  "data": [
    {"smiles": "CC/C=C\\C/C=C\\C/C=C\\C/C=C\\CCCCC(=O)O", "note": "[SDA, stearidonic acid]", "values": [
      {"measurement": "transfer efficiency of SDA to milk fat", "value": 39.3, "unit": "%"}
    ]}
  ]
}
